The text below walks through data of patent publication US20260098017A1, “NOVEL AROMATIC RING DERIVATIVE CONTAINING AMIDE SUBSTITUTION AND USE THEREOF” (TIANJIN PHARMACEUTICAL BIOTECHNOLOGY CO., LTD., priority 2022, published 2026).

For data set [1], the system named is imiquimod-induced mouse psoriasis-like model. Kind of data set: Imiquimod-induced mouse psoriasis-like model (PASI score). The class given is in vivo. The settings on record: bid; for Improvement of psoriasis symptoms by oral administration: oral gavage, 10 mg/kg, 25 mg/kg, 50 mg/kg, compared with the model group.
The test system of data set [2] is SD rats. The experiment in a line: Four-week repeat-dose toxicity study in rats. The class given is in vivo. The settings on record: rat, 28 days, po bid, 50 mg/kg. How it is done: Each group contained 10 animals, with an equal number of males and females.
The treatment lasted for four consecutive weeks (28 days).
• Daily clinical observation and body weight measurement; • After the last administration, rats were fasted for more than 16 h, anesthetized on the next day, and blood was collected from abdominal aorta. Tests such as hematology (EDTA-2K anticoagulation), blood biochemistry (serum), coagulation function (separated plasma with sodium citrate anticoagulation) and the like were respectively carried out; • After euthanization of the animals, the tissue organs were dissected and observed in general, and organ weights and coefficients (heart, liver, spleen, kidney, thymus) were determined; • The skin and lung tissues of the administration site were taken for HE staining to observe the changes in epidermal thickness, dermal inflammatory cells and pulmonary lesions.

The target of data set [3] is JAK3 JH1 kinase (Homo sapiens, UniProt P52333). Kind of data set: JAK3 JH1 enzyme assay in vitro (TR-FRET). The class given is biochemical. (In TR-FRET formats the signal depends on donor and acceptor labels being close together.)
Sequence of JAK3 JH1 kinase (P52333 822-1111 limits assumed): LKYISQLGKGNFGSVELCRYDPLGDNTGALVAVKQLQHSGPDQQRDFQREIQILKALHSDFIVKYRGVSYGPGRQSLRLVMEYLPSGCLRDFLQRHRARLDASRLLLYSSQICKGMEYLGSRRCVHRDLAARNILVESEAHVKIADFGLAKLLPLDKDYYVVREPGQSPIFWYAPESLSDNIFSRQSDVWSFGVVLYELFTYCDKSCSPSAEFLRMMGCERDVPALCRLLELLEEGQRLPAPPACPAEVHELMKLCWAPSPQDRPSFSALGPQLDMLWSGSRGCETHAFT
For data set [4], the target named is TYK2 JH2 pseudokinase (Homo sapiens, UniProt P29597). The experiment in a line: TYK2 JH2 enzyme binding assay in vitro (TR-FRET). As to the method:
Instrumentation: Envision microplate reader (PerkinElmer), ECHO550 (LABCYTE).
Method: the inhibitory effects of compounds on TYK2 JH2 pseudokinase was tested using time-resolved fluorescence resonance energy transfer (TR-FRET) method.
Procedure: compounds were prepared into 10 mM stock solutions using DMSO, which were further diluted into compound dilutions (200×) with different concentration gradients in DMSO, and the compound dilutions (200×) were transferred to a 384-well assay plate using an Echo instrument. […] TYK2 JH2 pseudokinase, Tb antibody, and Tracer working solutions were prepared using the dilution buffer, respectively. 5 uL of TYK2 JH2 pseudokinase working solution (final concentration 0.5 nM) was added to a 384-well assay plate, and centrifuged at 1000 rpm for 30 s. 5 uL of Tb antibody (final concentration 1×) was added to the 384-well assay plate, and centrifuged at 1000 rpm for 30 s. 5 uL of Tracer (final concentration 0.5 nM) was added to the 384-well assay plate, and centrifuged at 1000 rpm for 30 s. Incubation was performed at room temperature for 60 min, and then at 4° C. overnight.
Data Analysis: XLfit, a software developed by IDBS and integrated into the Microsoft Excel environment, was used to process and analyze the test data.

The target of data set [5] is JAK1 JH2 pseudokinase (Homo sapiens, UniProt P23458). Kind of data set: JAK1 JH2 enzyme binding assay in vitro (TR-FRET). The settings on record: read-out: JAK 1 JH2 IC50. How it is done:
Instrumentation: Envision microplate reader (PerkinElmer), Echo (LABCYTE)
Method: in this experiment, the inhibitory effects of compounds on JAK1 JH2 pseudokinase was tested using time-resolved fluorescence resonance energy transfer (TR-FRET) method.
Procedure: compounds were prepared into 10 mM stock solutions using DMSO, which were further diluted into compound dilutions with different concentration gradients in DMSO, and the compound dilutions with 200× final concentration were transferred to a 384-well assay plate using an Echo instrument. The preparation of the following 1× assay working solution: HEPES pH7.5 at a final concentration of 20 mM, MgCl2 at a final concentration of 10 mM, Brij-35 at a final concentration of 0.015%, DTT at a final concentration of 2 mM, BSA at a final concentration of 50 ug/mL. JAK1 JH2 pseudokinase with 3× final concentration, Tb antibody and Tracer were prepared using their respective 1× working solution. 5 uL of JAK1 JH2 pseudokinase was added to a 384-well assay plate, and centrifuged at 1000 rpm for 30 s. 5 uL of Tb antibody was added to the 384-well assay plate, and centrifuged at 1000 rpm for 30 s. 5 uL of Tracer was added to the 384-well assay plate, and centrifuged at 1000 rpm for 30 s. Incubation was performed at room temperature for 60 min, and then at 4° C. overnight. Finally, the 495 nm/520 nm fluorescence signal ratio was measured using the Envision microplate reader (PerkinElmer).
Data Analysis: XLfit, a software developed by IDBS and integrated into the Microsoft Excel environment, was used to process and analyze the test data. […] Thereafter, the concentration and corresponding inhibition rate data were imported into the XLfit software, and the Dose Response One Site 205 model within the software was employed to fit the inhibition rate-concentration curve by four-parameter method, and the IC50 value of the compound was calculated.

In data set [6] the target is JAK1 JH1 kinase (Homo sapiens, UniProt P23458). Kind of data set: JAK1 JH1 enzyme assay in vitro (TR-FRET). The class given is biochemical. The note with it: read-out: JAK 1 JH1 IC50.
Sequence of JAK1 JH1 kinase (P23458 875-1153 limits assumed): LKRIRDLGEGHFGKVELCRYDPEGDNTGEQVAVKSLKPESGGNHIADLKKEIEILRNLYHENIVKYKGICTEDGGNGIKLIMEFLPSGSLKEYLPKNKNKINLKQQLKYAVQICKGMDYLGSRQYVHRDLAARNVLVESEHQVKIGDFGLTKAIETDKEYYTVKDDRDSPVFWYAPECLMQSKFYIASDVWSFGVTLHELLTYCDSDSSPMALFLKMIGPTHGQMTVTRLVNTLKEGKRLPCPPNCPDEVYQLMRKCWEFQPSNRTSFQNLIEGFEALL
For data set [7], the target named is Ba/F3 cell line expressing TYK2 (Homo sapiens, UniProt P29597, cells depend on it, form not given). The experiment in a line: In vitro cellular inhibition assay (Ba/F3 cell proliferation, CellTiter-Glo). The class given is cell-based. The note with it: read-out: IC50 (the source's name). A digest of the protocol: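 Ba/F3 cells dependent on TYK2 were exposed to serially diluted compound, then viability was read by CellTiter-Glo luminescence. Inhibition (%) was calculated from RLU relative to max and min controls, and IC50 was obtained by curve fitting.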

In data set [8] the target is JAK2 JH1 kinase (Homo sapiens, UniProt O60674). The experiment in a line: JAK2 JH1 enzyme assay in vitro (TR-FRET). The class given is biochemical. The settings on record: read-out: JAK 2 JH1 IC50.
Sequence of JAK2 JH1 kinase (O60674 849-1124 limits assumed): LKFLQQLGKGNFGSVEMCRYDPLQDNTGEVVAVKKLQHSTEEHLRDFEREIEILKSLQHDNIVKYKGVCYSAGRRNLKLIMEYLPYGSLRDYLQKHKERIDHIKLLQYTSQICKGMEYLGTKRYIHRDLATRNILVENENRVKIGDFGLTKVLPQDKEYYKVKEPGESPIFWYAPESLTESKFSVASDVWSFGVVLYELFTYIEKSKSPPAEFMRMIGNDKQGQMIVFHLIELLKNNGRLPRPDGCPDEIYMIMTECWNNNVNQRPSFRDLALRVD
The target of data set [9] is T1, hERG channel (Homo sapiens, UniProt Q12809).
T1 construct: expressed in transfected cells; host or cells: HEK-293
T1 sequence (Q12809 whole entry): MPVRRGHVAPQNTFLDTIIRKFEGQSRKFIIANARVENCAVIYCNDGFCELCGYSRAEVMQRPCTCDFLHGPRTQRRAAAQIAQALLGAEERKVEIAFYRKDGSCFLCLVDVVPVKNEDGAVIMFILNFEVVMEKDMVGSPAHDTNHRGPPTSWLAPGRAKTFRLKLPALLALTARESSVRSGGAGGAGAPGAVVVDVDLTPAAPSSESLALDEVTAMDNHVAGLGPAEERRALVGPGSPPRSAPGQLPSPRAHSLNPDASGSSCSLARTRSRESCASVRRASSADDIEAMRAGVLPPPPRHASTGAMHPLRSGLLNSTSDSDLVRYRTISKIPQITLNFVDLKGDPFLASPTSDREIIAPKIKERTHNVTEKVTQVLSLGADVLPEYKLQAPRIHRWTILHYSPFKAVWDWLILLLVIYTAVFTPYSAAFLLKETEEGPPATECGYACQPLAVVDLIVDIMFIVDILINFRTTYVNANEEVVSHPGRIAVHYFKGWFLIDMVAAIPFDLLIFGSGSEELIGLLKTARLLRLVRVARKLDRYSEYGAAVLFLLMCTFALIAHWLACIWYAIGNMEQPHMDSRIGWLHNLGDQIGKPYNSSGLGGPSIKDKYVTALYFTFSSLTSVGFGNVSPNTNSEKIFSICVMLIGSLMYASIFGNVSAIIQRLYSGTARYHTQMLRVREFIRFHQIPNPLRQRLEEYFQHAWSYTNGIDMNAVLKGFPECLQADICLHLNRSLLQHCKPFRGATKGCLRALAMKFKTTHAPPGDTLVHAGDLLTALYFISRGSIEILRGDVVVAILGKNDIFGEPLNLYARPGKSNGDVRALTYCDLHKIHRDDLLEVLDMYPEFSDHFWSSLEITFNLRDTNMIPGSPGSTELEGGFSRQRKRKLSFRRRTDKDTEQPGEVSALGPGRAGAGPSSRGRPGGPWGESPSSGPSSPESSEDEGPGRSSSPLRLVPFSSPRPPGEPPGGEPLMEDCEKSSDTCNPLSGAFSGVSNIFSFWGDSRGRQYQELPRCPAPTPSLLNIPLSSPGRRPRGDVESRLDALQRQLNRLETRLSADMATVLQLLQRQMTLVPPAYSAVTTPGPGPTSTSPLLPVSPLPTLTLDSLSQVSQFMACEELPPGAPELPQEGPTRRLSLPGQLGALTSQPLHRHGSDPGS
Kind of data set: hERG potassium channel inhibition assay (manual patch clamp). The class given is cell-based. The note with it: HEK-293 cell line stably expressing hERG channel, at the tested concentrations. How it is done:
Instrumentation: HEKA EPC 10 patch clamp amplifier.
Method: in this experiment, the blocking effect of the compounds on the current of the HEK-293 cell line stably expressing hERG channel was measured using the manual patch clamp technique, and the risk of the compounds on the inhibition of cardiac hERG potassium channel was assessed by fitting the concentration effect relationship.
Procedure: in the patch clamp operation, firstly, a capillary glass tube was pulled into a recording electrode using a microelectrode puller, then an electrode filled with intracellular solution was mounted into a microelectrode holder. A microelectrode manipulator was operated under an inverted microscope to immerse the electrode into an extracellular solution and the electrode resistance (Rpip) was recorded. Then, the electrode was slowly brought into contact with the cell surface, and a negative pressure was applied for suction to form a GΩ seal. At this point, a fast capacitance compensation was performed, and a negative pressure was continuously applied to suck and break the cell membrane to form a whole cell recording mode. Finally, a slow capacitance compensation was performed and experimental parameters including series resistance (Rs) and the like were recorded. No leakage compensation was performed. When the hERG current recorded by the whole cell was stable, the administration of drugs commenced, and each drug concentration acted for about 5 min (or until the current stabilization) before detecting the next concentration. A cover glass covered with cells was placed in a recording bath under an inverted microscope, the blank control extracellular solution and the working solution of the compounds to be tested sequentially flowed through the recording bath from low concentration to high concentration by using gravity perfusion to act on the cells, and solution exchange was performed using a peristaltic pump during recording. The current measured by each cell in the extracellular solution without the compound served as its own control group. Each concentration was independently assessed twice. All electrophysiological tests were performed at room temperature.
Data Analysis: firstly, the tail current (Peak tail currentcompound) after the action of each drug concentration and the blank control tail current (Peak tail currentcontrol) were normalized, then the inhibition rate
corresponding to each drug concentration was calculated, and the mean (Mean), standard deviation (SD) and standard error (SE) of the inhibition rate corresponding to each concentration were calculated, with data expressed as Mean±SE. The calculation of IC50 value and the fitting of dose-response curve for the compound were performed using GraphPad Prism software.
In general terms: hERG is a cardiac potassium channel; its block is linked to QT prolongation.

Data set [10] deals with T2, TYK2 JH1 kinase (Homo sapiens, UniProt P29597).
T2 sequence (P29597 897-1176 limits assumed): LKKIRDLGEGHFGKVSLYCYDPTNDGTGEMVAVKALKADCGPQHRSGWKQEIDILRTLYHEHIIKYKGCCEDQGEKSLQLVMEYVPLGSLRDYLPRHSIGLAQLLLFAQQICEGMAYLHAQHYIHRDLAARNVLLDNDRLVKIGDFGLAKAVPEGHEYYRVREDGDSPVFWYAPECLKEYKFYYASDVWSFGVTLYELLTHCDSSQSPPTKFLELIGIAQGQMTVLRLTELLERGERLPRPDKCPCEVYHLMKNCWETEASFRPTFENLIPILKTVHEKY
The experiment in a line: TYK2 JH1 enzyme assay in vitro (TR-FRET). The class given is biochemical.

Setting [11] is: TR-FRET, read-out: JAK 3 JH1 IC50.

SMILES strings stand for the structures. Read-outs that look alike come from different tables or passages of the source. Marks after values point to notes of the source that are not given here.

Sequence of TYK2 JH2 pseudokinase (P29597 589-875 limits assumed): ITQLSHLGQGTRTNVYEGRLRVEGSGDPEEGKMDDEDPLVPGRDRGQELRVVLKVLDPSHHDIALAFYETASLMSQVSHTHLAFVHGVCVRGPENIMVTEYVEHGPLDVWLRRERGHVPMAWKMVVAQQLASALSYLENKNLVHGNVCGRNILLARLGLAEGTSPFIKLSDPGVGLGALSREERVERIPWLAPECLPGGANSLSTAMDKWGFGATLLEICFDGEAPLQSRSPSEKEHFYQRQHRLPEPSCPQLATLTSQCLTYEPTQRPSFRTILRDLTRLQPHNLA
Sequence of JAK1 JH2 pseudokinase (P23458 583-855 limits assumed): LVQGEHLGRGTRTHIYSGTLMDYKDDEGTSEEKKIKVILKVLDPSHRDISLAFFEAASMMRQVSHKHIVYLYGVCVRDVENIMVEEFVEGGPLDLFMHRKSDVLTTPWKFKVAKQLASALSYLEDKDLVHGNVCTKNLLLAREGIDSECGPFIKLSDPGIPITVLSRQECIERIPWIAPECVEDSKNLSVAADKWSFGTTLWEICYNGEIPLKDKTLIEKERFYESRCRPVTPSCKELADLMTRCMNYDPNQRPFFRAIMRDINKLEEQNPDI

`[2H]C([2H])([2H])NC(=O)c1nnc(NC(=O)C2CC2)cc1Nc1cccc(-c2ncn(C)n2)c1OC([2H])([2H])[2H]` [BMS-986165, reference compound]: in data set [1] (day 7, 10 mg/kg, oral, day 1 to 6), the “Percentage reduction in PASI score %” value is listed as 30.1** %. In data set [2], the “Hematology Gran” value is 1.6 ± 0.6 ×10^9/L, the “Hematology Lymph” value is 3.6 ± 0.8 ×10^9/L and the “Hematology Mono” value is recorded as 0.2 ± 0.0 ×10^9/L. This compound also showed a half-inhibitory concentration (IC50) in data set [3] of over 10000 nM.

Turning to `[2H]C([2H])([2H])NC(=O)c1cnc(NC(=O)C2CC2)cc1Nc1cccc(C(=O)Nc2ccc(F)cc2)c1OC` [Example 57, 6-(Cyclopropanecarboxamido)-4-((3-((4-fluorophenyl)carbamoyl)-2-methoxyphenyl)amino)-N-(methyl-d3)nicotinamide], the IC50 was 0.284 nM in [4]; 5.68 nM in data set [5]; over 10000 nM in data set [6]; over 10000 nM in data set [8]; over 10000 nM in data set [3] (setting [11]); over 10000 nM in [10]. Also, the “Improvement of psoriasis symptoms by oral administration” value (“Improvement of psoriasis symptoms” for short) in data set [1] is “effectively improve psoriasis symptoms”. Further, the GI50 in data set [7] was 1 to 5 nM. Besides, in data set [9], the hERG inhibition entry is given as “no significant inhibition”.

`[2H]C([2H])([2H])NC(=O)c1nnc(NC(=O)C2CC2)cc1Nc1cccc(C(=O)Nc2cnn(C)c2)c1OC` [Example 34]: the 50% inhibitory concentration (IC50) in data set [4] was 0.341 nM; in data set [5], 4.16 nM; in data set [6], over 10000 nM; in data set [8], over 10000 nM; in data set [3] (setting [11]), over 10000 nM; in data set [10], over 10000 nM. Besides, the “Improvement of psoriasis symptoms” value in data set [1] is “effectively improve psoriasis symptoms”. Further, in [7], the GI50 fell in the range of 1 to 5 nM. In addition, in data set [9], the hERG inhibition result is given as “no significant inhibition”.

Regarding `[2H]C([2H])([2H])NC(=O)c1nnc(NC(=O)C2CC2)cc1Nc1cccc(C(=O)Nc2cncc(C)c2)c1OC` [Example 38], the half-maximal inhibitory concentration (IC50) is 0.322 nM in data set [4]; 2.35 nM in [5]; over 10000 nM in [6]; over 10000 nM in data set [8]; over 10000 nM in data set [3] (setting [11]); over 10000 nM in data set [10]. Besides, the “Improvement of psoriasis symptoms” value in data set [1] is recorded as “effectively improve psoriasis symptoms”. Moreover, the GI50 in data set [7] lay within 1 to 5 nM. For the same compound, the hERG inhibition entry in [9] was “no significant inhibition”.

For orientation: IC50 means the point on the concentration scale where inhibition reaches its midpoint.
